The pIC50 is the negative decadic logarithm of the IC50, by convention in mol/L. What is called bioavailability is dose-corrected exposure relative to a reference, in per cent.

One data set addresses ROCK1 (Homo sapiens (Human), UniProt Q13464). The data set can be described thus: In vitro inhibitory activity against ROCK protein kinase (33P-ATP filter-binding), ROCK1. The format is biochemical. The following applies: 1 nM ROCK protein kinase, 20 μM Long S6 Kinase substrate peptide. The protocol:
(§1) 1. In Vitro Evaluation of the Inhibitory Activity Against ROCK Protein Kinase
(§2) Experimental purpose: to detect the inhibitory IC50 value of the compound against ROCK protein kinase.
(§3) Assay buffer solution: 20 mM 4-hydroxyethylpiperazine ethanesulfonic acid (pH 7.5), 10 mM magnesium chloride, 1 mM ethylene glycol-bis-(2-aminoethyl)tetraacetic acid, 0.02% polyethylene glycol monododecyl ether, 0.02 mg/mL bovine serum albumin, 0.1 mM sodium vanadate, 2 mM dithiothreitol, 1% DMSO.
(§4) The freshly prepared buffer solution was added to ROCK protein kinase substrate (Long S6 Kinase substrate peptide), at a concentration of 20 μM, then 1 nM ROCK protein kinase was added thereto and stirred evenly. Echo550 was used to add a series of DMSO dilutions containing the test compound (starting from 10 μM, serially diluted by 3 times), the solution was pre-incubated at room temperature for 20 minutes, then ^33P-ATP (radiation intensity 10 μCi/μL) was added to initiate the reaction, and the reaction was performed at room temperature for two hours. Then the solution was filtered by P81 ion exchange paper (Whatman #3698-915) and washed with 0.75% phosphoric acid. The radiation intensity was determined by Filter-Binding method.
(§5) The protein kinase inhibitory activity of the compound was expressed as the remaining protein kinase activity relative to the blank substrate (simply DMSO). Prism software package (GraphPad Software, San Diego Calif., USA) was used to calculate IC50 value and the curve.

A further data set addresses ROCK2 (Homo sapiens (Human), UniProt O75116). The data set can be described thus: In vitro inhibitory activity against ROCK protein kinase (33P-ATP filter-binding), ROCK2. The format is biochemical. The following applies: 1 nM ROCK protein kinase, 20 μM Long S6 Kinase substrate peptide. The procedure:
as §1, §2, §3, §4, §5

The nature of data set [1]: Pharmacokinetics in SD rats (intravenous injection and oral administration). The format is in vivo. The note with it: rat, plasma, male SD rats; for clearance / half-life / Vd: intravenous 1 mg/kg; for clearance: read-out: Clearance rate CL; for half-life: read-out: Half-life T1/2 (IV) (converted); for Vd: read-out: Tissue distribution Vdss; for bioavailability: oral 2 mg/kg vs intravenous 1 mg/kg, read-out: Bioavailability F; for AUC(0-t) / Cmax: oral 2 mg/kg; for AUC(0-t): read-out: Area under the drug-time curve AUC0-last PO; for Cmax: read-out: Peak concentration Cmax. The procedure:
4. Evaluation of the Pharmacokinetics of the Compound
Experimental purpose: to study the pharmacokinetics of the compounds in SD rats in vivo
SD rat (male, 7 to 10 weeks old, WTLH/SLAC)
The rodent pharmacokinetic characteristics of the compounds after intravenous injection and oral administration were tested by standard protocols. In the experiment, the candidate compounds were formulated into 0.2 mg/mL clear solutions and were given to the rats by a single intravenous injection and oral administration. The vehicles of the intravenous injection and oral administration were both 5% DMSO/95% (10% hydroxypropyl P-cyclodextrin) aqueous solution. This project used four male SD rats and two of them were administered by intravenous injection at a dosage of 1 mg/kg, plasma samples were collected at 0.0833, 0.25, 0.5, 1, 2, 4, 6, 8, and 24 hours after administration, the other two rats were administered orally and intragastrically at a dosage of 2 mg/kg, plasma samples were collected at 0.25, 0.5, 1, 2, 3, 4, 6, 8, 24 hours after administration. The whole blood samples were collected within 24 hours and centrifuged at 3000 g for 15 minutes, and the supernatants were separated to give plasma samples. The plasma samples were added with an acetonitrile solution containing internal standard to precipitate protein, mixed thoroughly and centrifuged, and the supernatants were taken for injection. The blood drug concentration was quantitatively analyzed by LC-MS/MS analysis method, and the pharmacokinetic parameters (such as peak concentration (Cmax), clearance rate (CL), half-life (T1/2), […] (Vdss), area under the drug-time curve (AUC0-last), and bioavailability (F), etc.) were calculated.

pIC50: −log10 of the molar value.

Chain of ROCK2 (O75116 whole entry): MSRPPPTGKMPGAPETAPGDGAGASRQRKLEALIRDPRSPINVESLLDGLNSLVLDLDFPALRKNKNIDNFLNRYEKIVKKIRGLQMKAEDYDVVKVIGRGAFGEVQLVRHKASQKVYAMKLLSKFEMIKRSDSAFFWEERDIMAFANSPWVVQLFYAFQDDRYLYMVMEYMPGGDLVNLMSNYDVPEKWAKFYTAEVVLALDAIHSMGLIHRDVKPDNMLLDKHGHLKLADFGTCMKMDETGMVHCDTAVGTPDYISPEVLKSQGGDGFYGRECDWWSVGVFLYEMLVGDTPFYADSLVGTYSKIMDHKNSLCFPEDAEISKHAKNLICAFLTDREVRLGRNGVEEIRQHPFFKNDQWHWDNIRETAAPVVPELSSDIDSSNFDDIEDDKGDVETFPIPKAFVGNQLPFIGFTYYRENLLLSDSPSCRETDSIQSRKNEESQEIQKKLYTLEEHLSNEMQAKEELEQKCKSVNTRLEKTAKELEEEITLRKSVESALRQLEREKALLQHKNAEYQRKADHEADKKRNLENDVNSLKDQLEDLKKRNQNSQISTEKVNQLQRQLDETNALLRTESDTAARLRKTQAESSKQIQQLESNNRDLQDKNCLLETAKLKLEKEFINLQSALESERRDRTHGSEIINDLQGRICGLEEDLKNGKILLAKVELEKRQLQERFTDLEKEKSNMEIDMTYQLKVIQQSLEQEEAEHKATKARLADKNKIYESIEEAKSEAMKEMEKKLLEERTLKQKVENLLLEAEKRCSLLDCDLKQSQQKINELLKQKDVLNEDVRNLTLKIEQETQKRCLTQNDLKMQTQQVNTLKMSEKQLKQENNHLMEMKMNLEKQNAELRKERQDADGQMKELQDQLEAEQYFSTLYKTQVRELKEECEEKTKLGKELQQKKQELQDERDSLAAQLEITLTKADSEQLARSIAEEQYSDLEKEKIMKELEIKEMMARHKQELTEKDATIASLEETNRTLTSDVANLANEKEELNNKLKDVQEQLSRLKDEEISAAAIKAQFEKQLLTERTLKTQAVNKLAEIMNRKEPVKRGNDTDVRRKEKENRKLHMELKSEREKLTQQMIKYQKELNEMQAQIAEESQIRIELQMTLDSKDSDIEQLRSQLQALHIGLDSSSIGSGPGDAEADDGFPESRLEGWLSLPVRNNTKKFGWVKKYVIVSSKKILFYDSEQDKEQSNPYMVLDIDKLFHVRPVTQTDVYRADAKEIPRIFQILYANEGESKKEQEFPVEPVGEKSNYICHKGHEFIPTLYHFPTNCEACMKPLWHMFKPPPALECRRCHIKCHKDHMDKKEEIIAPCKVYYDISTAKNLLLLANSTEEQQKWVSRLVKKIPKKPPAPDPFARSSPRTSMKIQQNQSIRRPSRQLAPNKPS
Chain of ROCK1 (Q13464 whole entry): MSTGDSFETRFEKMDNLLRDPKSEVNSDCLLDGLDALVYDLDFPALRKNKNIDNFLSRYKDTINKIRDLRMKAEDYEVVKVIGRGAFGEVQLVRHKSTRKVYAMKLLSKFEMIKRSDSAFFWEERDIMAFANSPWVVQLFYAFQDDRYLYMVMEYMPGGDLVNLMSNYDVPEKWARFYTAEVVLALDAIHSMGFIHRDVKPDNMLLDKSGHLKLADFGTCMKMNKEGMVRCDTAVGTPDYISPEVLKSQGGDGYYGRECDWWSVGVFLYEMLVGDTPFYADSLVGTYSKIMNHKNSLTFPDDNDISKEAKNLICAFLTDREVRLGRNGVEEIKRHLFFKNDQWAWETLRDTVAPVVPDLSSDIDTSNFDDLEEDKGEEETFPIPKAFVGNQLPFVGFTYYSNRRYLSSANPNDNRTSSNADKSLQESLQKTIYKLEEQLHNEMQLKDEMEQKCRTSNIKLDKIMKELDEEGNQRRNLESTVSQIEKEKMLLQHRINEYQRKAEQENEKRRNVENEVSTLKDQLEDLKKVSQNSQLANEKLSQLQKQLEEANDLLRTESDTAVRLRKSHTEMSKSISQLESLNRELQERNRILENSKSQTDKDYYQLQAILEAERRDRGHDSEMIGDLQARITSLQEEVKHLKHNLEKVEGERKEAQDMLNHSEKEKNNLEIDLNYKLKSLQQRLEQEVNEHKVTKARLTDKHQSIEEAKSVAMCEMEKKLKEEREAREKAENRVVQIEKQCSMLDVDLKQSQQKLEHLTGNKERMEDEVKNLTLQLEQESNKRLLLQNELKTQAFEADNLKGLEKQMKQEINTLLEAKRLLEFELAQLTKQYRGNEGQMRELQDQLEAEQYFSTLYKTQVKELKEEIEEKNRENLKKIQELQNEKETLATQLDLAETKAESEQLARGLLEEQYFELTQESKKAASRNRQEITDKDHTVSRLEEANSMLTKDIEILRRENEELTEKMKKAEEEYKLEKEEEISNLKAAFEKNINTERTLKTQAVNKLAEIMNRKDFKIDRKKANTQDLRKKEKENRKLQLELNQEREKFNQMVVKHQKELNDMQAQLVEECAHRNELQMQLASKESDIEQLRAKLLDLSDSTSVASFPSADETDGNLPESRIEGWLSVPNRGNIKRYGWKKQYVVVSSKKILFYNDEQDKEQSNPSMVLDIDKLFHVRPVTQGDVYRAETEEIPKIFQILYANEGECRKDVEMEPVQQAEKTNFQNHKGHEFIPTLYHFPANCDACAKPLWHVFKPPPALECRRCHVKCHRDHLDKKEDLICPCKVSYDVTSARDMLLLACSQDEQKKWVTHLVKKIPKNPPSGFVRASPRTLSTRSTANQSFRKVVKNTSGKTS

Compound `COc1cccc(C(CO)NC(=O)c2cccc(-c3ccc4[nH]nc(C)c4c3)c2)c1` (stereo not drawn) [Compound 25] had a pIC50 on ROCK1 of 7.05. This compound also gave a pIC50 on ROCK2 of 8.30. Also, in data set [1], the clearance was 6.24 mL/min/kg, the half-life is 2.91 h, the Vd is 1.15 L/kg and the bioavailability worked out at 45%. In data set [1], the AUC(0-t) worked out at 6.3 µM·h and the Cmax amounted to 1180 nM.

For `COc1cccc(C(CO)NC(=O)c2cccc(-c3ccc4[nH]nc(F)c4c3)c2)c1` (stereo not drawn) [Compound 26], on ROCK1, the pIC50 was 6.95. For the same compound, at ROCK2, the negative logarithm of the IC50 (pIC50) is 7.80. In data set [1], the clearance amounted to 14 mL/min/kg, the half-life is 2.5 h, the Vd is 1.72 L/kg and the bioavailability amounted to 51%. Also, in data set [1], the AUC(0-t) stood at 3.04 µM·h and the Cmax amounted to 752 nM.

`Cc1cccc(C(CN)NC(=O)c2cccc(-c3ccc4[nH]nc(C)c4c3)c2)c1` (stereo not drawn) [Compound 35] gave a pIC50 at ROCK1 of 6.50. At ROCK2, this compound showed a pIC50 of 7.89. In addition, in data set [1], the clearance worked out at 25 mL/min/kg, the half-life was 3.83 h, the Vd stood at 6.78 L/kg and the bioavailability amounted to 21%. Also, in data set [1], the AUC(0-t) turned out to be 0.734 µM·h and the Cmax came out at 117 nM.

At ROCK1, `COc1cccc(C(CN(C)C)NC(=O)c2cccc(-c3ccc4[nH]nc(C)c4c3)c2)c1` (stereo not drawn) [Compound 36] showed a pIC50 of 7.14. Also, the pIC50 on ROCK2 is 8.00. Also, in data set [1], the clearance was determined as 50.9 mL/min/kg, the half-life is 1.33 h, the Vd stood at 5.05 L/kg and the bioavailability was found to be 10%. Moreover, in data set [1], the AUC(0-t) came out at 0.156 µM·h and the Cmax is 36.4 nM.

On to `COc1cccc(C(CN)NC(=O)c2cc(-c3ccc4[nH]nc(C)c4c3)ccn2)c1` (stereo not drawn) [Compound 40], for which, at ROCK1, the pIC50 is 7.24. This compound also gave a pIC50 at ROCK2 of 8.40. In data set [1], the clearance was 23.4 mL/min/kg, the half-life was 3.58 h, the Vd worked out at 6 L/kg and the bioavailability was found to be 21%. Besides, in data set [1], the AUC(0-t) is 0.758 µM·h and the Cmax amounted to 117 nM.

Take `COc1cccc(C(CN)NC(=O)c2cc(-c3ccc4[nH]nc(C)c4c3)ccc2OC(F)(F)F)c1` (stereo not drawn) [Compound 49]: the negative-log IC50 (pIC50) at ROCK1 is 5.92. This compound had a pIC50 on ROCK2 of 7.51. Moreover, in data set [1], the clearance was determined as 23.1 mL/min/kg, the half-life is 4.82 h, the Vd amounted to 8.31 L/kg and the bioavailability amounted to 60%. For the same compound, in data set [1], the AUC(0-t) is 1.33 µM·h and the Cmax was 157 nM.

Regarding `COc1cccc(C(CN)NC(=O)c2cc(C#N)cc(-c3ccc4[nH]nc(C)c4c3)c2)c1` (stereo not drawn) [Compound 57], the pIC50 on ROCK1 was 5.90; at ROCK2, 7.24.

For the compound `COc1cccc(C(CN)NC(=O)c2cc(CN3CCCC3)cc(-c3ccc4[nH]nc(F)c4c3)c2)c1` (stereo not drawn) [Compound 58], the values for the pIC50 at ROCK1 and at ROCK2 were 5.79 and 7.32, respectively.

For the compound `Cc1n[nH]c2ccc(-c3cccc(C(=O)NC(CO)c4cccc(F)c4)c3)cc12` (stereo not drawn) [Compound 59], the pIC50 is 7.03 on ROCK1 and 7.80 on ROCK2.

For `O=C(NC(CO)c1cccc(F)c1)c1cccc(-c2ccc3[nH]nc(F)c3c2)c1` (stereo not drawn) [Compound 60], the pIC50 at ROCK1 was 6.67; on ROCK2, 7.36.

As for `Cc1n[nH]c2ccc(-c3cccc(C(=O)NC(CN)c4cccc(F)c4F)c3)cc12` (stereo not drawn) [Compound 61], at ROCK1, the negative-log IC50 (pIC50) is 6.60. For the same compound, at ROCK2, the pIC50 is 7.64. In data set [1], the clearance worked out at 30.8 mL/min/kg, the half-life is 2.37 h, the Vd was 4.72 L/kg and the bioavailability stood at 11%. Further, in data set [1], the AUC(0-t) turned out to be 0.266 µM·h and the Cmax worked out at 55.6 nM.

Consider `NCC(NC(=O)c1cccc(-c2ccc3[nH]nc(F)c3c2)c1)c1cccc(F)c1F` (stereo not drawn) [Compound 62], for which the pIC50 at ROCK1 was 6.54; on ROCK2, 7.32.

Turning to `COc1cccc(C(NC(=O)c2cccc(-c3ccc4[nH]nc(C)c4c3)c2)C(C)(C)N)c1` (stereo not drawn) [Compound 64], the pIC50 at ROCK1 is 6.10. Further, at ROCK2, the pIC50 was 7.34. In data set [1], the clearance came to 88.3 mL/min/kg, the half-life is 2.83 h, the Vd was 16.4 L/kg and the bioavailability is 12%. Further, in data set [1], the AUC(0-t) came out at 0.1 µM·h and the Cmax is 17 nM.

Turning to `CNCC(NC(=O)c1cccc(-c2ccc3[nH]nc(C)c3c2)c1)c1cccc(OC)c1` (stereo not drawn) [Compound 65], the pIC50 on ROCK1 is 6.86; on ROCK2 it was 8.40.

Turning to `CNCC(NC(=O)c1cc(-c2ccc3[nH]nc(C)c3c2)ccn1)c1cccc(OC)c1` (stereo not drawn) [Compound 66], at ROCK1, the pIC50 was 6.71. On ROCK2, this compound gave a pIC50 of 7.96. In data set [1], the clearance amounted to 50.8 mL/min/kg, the half-life was 2.74 h, the Vd stood at 10.5 L/kg and the bioavailability amounted to 20.9%. Also, in data set [1], the AUC(0-t) stood at 0.306 µM·h and the Cmax was 50.7 nM.

Consider `Cc1cccc(C(CN)NC(=O)c2cc(-c3ccc4[nH]nc(C)c4c3)ccn2)c1` (stereo not drawn) [Compound 67], for which the pIC50 on ROCK1 was 6.47; on ROCK2, 7.66.

Regarding `COc1cccc(C(CN)NC(=O)c2cccc(-c3cc(OC)c4[nH]ncc4c3)c2)c1` (stereo not drawn) [Compound 71], the pIC50 on ROCK1 was 6.12; at ROCK2, 8.05.

`COc1cccc(C(CNS(C)(=O)=O)NC(=O)c2cccc(-c3ccc4[nH]nc(C)c4c3)c2)c1` (stereo not drawn) [Compound 72] had a pIC50 on ROCK1 of 6.23. The pIC50 at ROCK2 is 7.92. In addition, in data set [1], the clearance was determined as 55.7 mL/min/kg, the half-life was 0.62 h, the Vd came out at 1.79 L/kg and the bioavailability came out at 11%. Further, in data set [1], the AUC(0-t) was 0.148 µM·h and the Cmax turned out to be 99.4 nM.

The record behind these values is patent US11345678B2, “Benzopyrazole compound used as RHO kinase inhibitor” (MEDSHINE DISCOVERY INC., priority 2018, dated 2022).
